Test results from ChEMBL document CHEMBL4513135, “CO-ADD screening of IQOG CSIS (Spain) compounds”.
Values after ≈ are worked out from the molar mass of the structure shown.

Tests used:
Acinetobacter baumannii = test: microbe, parasite or virus in culture; details: ATCC 19606, 18 h, ASSAY_TEST Inhibition of Bacterial Growth, detection method Absorption (OD600), MEDIA CAMHB, plate type 384well, NBS, CORNING #3640
HEK293 = test: cells; type: functional; details: Homo sapiens, ATCC CRL1573, HEK293; ASSAY_TEST Inhibition of Cell Viability; detection method Resazurin; Fluorescence (ex560/em590); MEDIA DMEM with 10% FBS; plate type 384well; TC; CORNING #3712; time 18 hr
Escherichia coli = test: microbe, parasite or virus in culture; details: ATCC 25922, 18 h, ASSAY_TEST Inhibition of Bacterial Growth, detection method Absorption (OD600), MEDIA CAMHB, plate type 384well, NBS, CORNING #3640
Staphylococcus aureus = test: microbe, parasite or virus in culture; details: ATCC 43300, 18 h, ASSAY_TEST Inhibition of Bacterial Growth, detection method Absorption (OD600), MEDIA CAMHB, plate type 384well, NBS, CORNING #3640
Pseudomonas aeruginosa = test: microbe, parasite or virus in culture; details: ATCC 27853, 18 h, ASSAY_TEST Inhibition of Bacterial Growth, detection method Absorption (OD600), MEDIA CAMHB, plate type 384well, NBS, CORNING #3640
Candida albicans = test: microbe, parasite or virus in culture; details: ATCC 90028, ASSAY_TEST Inhibition of Fungal Growth, detection method Absorption (OD530), plate type 384well, NBS, CORNING #3640
Klebsiella pneumoniae = test: microbe, parasite or virus in culture; details: ATCC 700603, 18 h, ASSAY_TEST Inhibition of Bacterial Growth, detection method Absorption (OD600), MEDIA CAMHB, plate type 384well, NBS, CORNING #3640

In the case of `COc1nc2n[nH]c(N)c2c(-c2ccccc2)c1C#N`, the MIC (Acinetobacter baumannii) is reported as over 32 µg/mL, the CC50 (HEK293) is reported as 5.47 µg/mL (≈ 20.6 µM) and the MIC (Escherichia coli) is reported as over 32 µg/mL. For the same molecule, the MIC (Staphylococcus aureus) was over 32 µg/mL, the MIC (Pseudomonas aeruginosa) was over 32 µg/mL and the MIC (Candida albicans) was over 32 µg/mL. The MIC (Cryptococcus neoformans) was over 32 µg/mL and the MIC (Klebsiella pneumoniae) was over 32 µg/mL.

Work on `Cc1ccc2nc(Cl)c(/C=N/Cc3ccccc3)cc2c1` yielded an MIC (Acinetobacter baumannii) of over 32 µg/mL, a CC50 (HEK293) of over 32 µg/mL and an MIC (Escherichia coli) of over 32 µg/mL. The MIC (Staphylococcus aureus) was over 32 µg/mL, the MIC (Pseudomonas aeruginosa) was over 32 µg/mL and the MIC (Candida albicans) was over 32 µg/mL. For the same molecule, the MIC (Cryptococcus neoformans) was over 32 µg/mL and the MIC (Klebsiella pneumoniae) was over 32 µg/mL.

Molecule `Cl.ClCc1ccncc1` has an MIC (Acinetobacter baumannii) of over 32 µg/mL, a CC50 (HEK293) of over 32 µg/mL and an MIC (Escherichia coli) of over 32 µg/mL. For the same molecule, the MIC (Staphylococcus aureus) was over 32 µg/mL, the MIC (Pseudomonas aeruginosa) was over 32 µg/mL and the MIC (Candida albicans) was 32 µg/mL. For the same molecule, the MIC (Cryptococcus neoformans) was over 32 µg/mL and the MIC (Klebsiella pneumoniae) was over 32 µg/mL.

`C#CCN(C)Cc1cc2cc(OCc3ccccc3)ccc2[nH]1.O=C(O)C(=O)O` gave an MIC (Acinetobacter baumannii) of over 32 µg/mL, a CC50 (HEK293) of over 32 µg/mL and an MIC (Escherichia coli) of over 32 µg/mL. The MIC (Staphylococcus aureus) was over 32 µg/mL, the MIC (Pseudomonas aeruginosa) was over 32 µg/mL and the MIC (Candida albicans) was 32 µg/mL. For the same molecule, the MIC (Cryptococcus neoformans) was over 32 µg/mL and the MIC (Klebsiella pneumoniae) was over 32 µg/mL.

Molecule `C#CCNc1ccc(Cl)cn1` has an MIC (Acinetobacter baumannii) of over 32 µg/mL, a CC50 (HEK293) of over 32 µg/mL and an MIC (Escherichia coli) of over 32 µg/mL. For the same molecule, the MIC (Staphylococcus aureus) was over 32 µg/mL, the MIC (Pseudomonas aeruginosa) was over 32 µg/mL and the MIC (Candida albicans) was over 32 µg/mL. For the same molecule, the MIC (Cryptococcus neoformans) was over 32 µg/mL and the MIC (Klebsiella pneumoniae) was over 32 µg/mL.

In the case of `C#CCN(C)c1nc(NCCCCC2CCN(Cc3ccccc3)CC2)c(C#N)c(-c2ccccc2)c1C#N`, the MIC (Acinetobacter baumannii) is reported as over 32 µg/mL, the CC50 (HEK293) is reported as 3.73 µg/mL (≈ 7.22 µM) and the MIC (Escherichia coli) is reported as over 32 µg/mL. It also gave an MIC (Staphylococcus aureus) of over 32 µg/mL, an MIC (Pseudomonas aeruginosa) of over 32 µg/mL and an MIC (Candida albicans) of 32 µg/mL (≈ 61.9 µM). The MIC (Cryptococcus neoformans) was 8 µg/mL (≈ 15.5 µM) and the MIC (Klebsiella pneumoniae) was over 32 µg/mL.

In the case of `Cc1ccc2nc(Cl)c(/C=N/O)cc2c1`, the MIC (Acinetobacter baumannii) is reported as over 32 µg/mL, the CC50 (HEK293) is reported as over 32 µg/mL and the MIC (Escherichia coli) is reported as over 32 µg/mL. For the same molecule, the MIC (Staphylococcus aureus) was over 32 µg/mL, the MIC (Pseudomonas aeruginosa) was over 32 µg/mL and the MIC (Candida albicans) was over 32 µg/mL. The MIC (Cryptococcus neoformans) was over 32 µg/mL and the MIC (Klebsiella pneumoniae) was over 32 µg/mL.

`N#CC1(Br)C(=N)Oc2ccc3ccccc3c2C1c1ccccc1[N+](=O)[O-]` (centres undefined) was tested, and the MIC (Acinetobacter baumannii) was over 32 µg/mL, the CC50 (HEK293) was 5.83 µg/mL (≈ 13.8 µM) and the MIC (Escherichia coli) was over 32 µg/mL. It also gave an MIC (Staphylococcus aureus) of over 32 µg/mL, an MIC (Pseudomonas aeruginosa) of over 32 µg/mL and an MIC (Candida albicans) of over 32 µg/mL. For the same molecule, the MIC (Cryptococcus neoformans) was over 32 µg/mL and the MIC (Klebsiella pneumoniae) was over 32 µg/mL.

`C#CCN(C)Cc1cc2cc(OCCCC3CCN(Cc4ccccc4)CC3)ccc2[nH]1.O=C(O)C(=O)O` showed an MIC (Acinetobacter baumannii) of over 32 µg/mL, a CC50 (HEK293) of 13.4 µg/mL and an MIC (Escherichia coli) of over 32 µg/mL. The MIC (Staphylococcus aureus) was over 32 µg/mL, the MIC (Pseudomonas aeruginosa) was over 32 µg/mL and the MIC (Candida albicans) was over 32 µg/mL. The MIC (Cryptococcus neoformans) was over 32 µg/mL and the MIC (Klebsiella pneumoniae) was over 32 µg/mL.

`Cc1ccc2nc(Cl)c(C=O)cc2c1` showed an MIC (Acinetobacter baumannii) of over 32 µg/mL, a CC50 (HEK293) of 24.1 µg/mL (≈ 117 µM) and an MIC (Escherichia coli) of over 32 µg/mL. It also gave an MIC (Staphylococcus aureus) of over 32 µg/mL, an MIC (Pseudomonas aeruginosa) of over 32 µg/mL and an MIC (Candida albicans) of over 32 µg/mL. The MIC (Cryptococcus neoformans) was 32 µg/mL (≈ 156 µM) and the MIC (Klebsiella pneumoniae) was over 32 µg/mL.

For `N#C/C(=C\c1ccc([N+](=O)[O-])cc1)C(=O)c1ccccc1`, the MIC (Acinetobacter baumannii) was over 32 µg/mL, the CC50 (HEK293) was over 32 µg/mL and the MIC (Escherichia coli) was over 32 µg/mL. For the same molecule, the MIC (Staphylococcus aureus) was over 32 µg/mL, the MIC (Pseudomonas aeruginosa) was over 32 µg/mL and the MIC (Candida albicans) was over 32 µg/mL. The MIC (Cryptococcus neoformans) was 32 µg/mL (≈ 115 µM) and the MIC (Klebsiella pneumoniae) was over 32 µg/mL.

Molecule `N#CC1=C(N)Oc2ccc3ccccc3c2C1c1ccc([N+](=O)[O-])cc1` (centres undefined) has an MIC (Acinetobacter baumannii) of over 32 µg/mL, a CC50 (HEK293) of 1.88 µg/mL (≈ 5.48 µM) and an MIC (Escherichia coli) of over 32 µg/mL. It also gave an MIC (Staphylococcus aureus) of over 32 µg/mL, an MIC (Pseudomonas aeruginosa) of over 32 µg/mL and an MIC (Candida albicans) of over 32 µg/mL. For the same molecule, the MIC (Cryptococcus neoformans) was over 32 µg/mL and the MIC (Klebsiella pneumoniae) was over 32 µg/mL.

With `CCOC(=O)C1=C(C)Nc2nc3c(c(N)c2C1c1ccccc1OC)CCCC3` (centres undefined) the MIC (Acinetobacter baumannii) was over 32 µg/mL, the MIC (Escherichia coli) was over 32 µg/mL and the MIC (Staphylococcus aureus) was 32 µg/mL (≈ 81.3 µM). The MIC (Pseudomonas aeruginosa) was over 32 µg/mL, the MIC (Candida albicans) was over 32 µg/mL and the MIC (Cryptococcus neoformans) was over 32 µg/mL. The MIC (Klebsiella pneumoniae) was over 32 µg/mL.

In the case of `CCOC(=O)C1=C(C)Nc2nc3c(c(N)c2C1c1ccccc1OC)CCCC3.Cl` (centres undefined), the MIC (Acinetobacter baumannii) is reported as over 32 µg/mL, the MIC (Escherichia coli) is reported as over 32 µg/mL and the MIC (Staphylococcus aureus) is reported as 32 µg/mL. For the same molecule, the MIC (Pseudomonas aeruginosa) was over 32 µg/mL, the MIC (Candida albicans) was over 32 µg/mL and the MIC (Klebsiella pneumoniae) was over 32 µg/mL.
